# Data from US5998488A, “Ophthalmic composition” (Lion Corporation, priority 1994, dated 1999).
# How the values were obtained:
# [1] = tested on: E. coli, P. aeru, S. aureus, A. nigar, Candida; experiment: Antimicrobial test (preservative effectiveness test, USP), microorganism type not specified; assay type: cell-based; details: for Enhancement of antimicrobial activity (in words): solutions containing benzalkonium chloride, α-cyclodextrin, and EDTA-2Na, alone or in admixture
# Procedure: Using bacteria Escherichia coli (E. coli), Pseudomonas aeruginosa (P. aeru), and Stapyrococcus aureus (S. aureus) and fungi Aspergillus nigar (A. nigar) and Candida albicans (Candida) as infectious microorganisms, a preservative effectiveness test was carried out according to the Pharmacopoeia of the United States.
# ++: microorganisms died within 5 days
# +: microorganisms died in 6-10 days
# -:microorganisms died in 11-15 days or over 15 days
# Solutions were prepared in accordance with the formulation shown in Experiment 1 in a conventional manner as used in the preparation of eye drops while the amount of disodium ethylenediaminetetraacetate (EDTA-2Na) blended was in the range of 0.002 to 0.3%. The solutions were subject to the antimicrobial test of Experiment 3 and evaluated for antimicrobial activity according to the same criterion as above.
# Solutions of the following formulation were prepared in a conventional manner as used in the preparation of eye drops.
# The solutions were subject to the antimicrobial test of Experiment 3 and evaluated for antimicrobial activity according to the same criterion as above.
# Solutions of the formulation shown in Table 7 were prepared to a total amount of 1,000 g in a conventional manner as used in the preparation of eye drops. […] The ophthalmic solutions were subject to the same tests as in Experiments 1 and 3. In the test of Experiment 3, the ophthalmic solutions were evaluated for antimicrobial activity according to the same criterion as before.
# [2] = Benzalkonium chloride adsorption test (soft contact lenses, lens not given); assay type: physicochemical; details: α-cyclodextrin replaced by the other cyclodextrin
# Procedure: (§1) The percent inhibition of benzalkonium chloride adsorption to commercially available soft contact lenses was determined by the following test.
# (§2) Benzalkonium chloride adsorption test A 30-ml vial was charged with 10 ml of the solution and a soft contact lens was immersed therein. In a constant temperature tank at 25° C., the vial was shaken for 24 hours. After the contact lens was removed from the vial, the concentration of benzalkonium chloride in the solution was quantitatively determined by high performance liquid chromatography. A percent inhibition of adsorption was calculated according to the following formula.
# (§3) As a control, the above procedure was repeated except that no contact lens was immersed.
# (§4) Inhibition of adsorption (%)=(concentration of benzalkonium chloride in sample solution)/(concentration of benzalkonium chloride in control solution)×100
# Solutions of the formulation shown in Table 7 were prepared to a total amount of 1,000 g in a conventional manner as used in the preparation of eye drops. Ophthalmic solutions of Examples 2 to 13 were obtained. The ophthalmic solutions were subject to the same tests as in Experiments 1 and 3. In the test of Experiment 3, the ophthalmic solutions were evaluated for antimicrobial activity according to the same criterion as before.
# [3] = Benzalkonium chloride adsorption test (soft contact lens Nichicon Soft μ); assay type: physicochemical; details: α-cyclodextrin 0%; benzalkonium chloride 0.01%; 25° C., 24 hours
# Procedure: (§5) A test was conducted to examine the inhibition of benzalkonium chloride adsorption to soft contact lenses. Solutions of the following formulation were prepared in a conventional manner as used in the preparation of eye drops.
# as §1, §2, §3, §4
# (§6) Note that Seequence, Nichicon Soft and Menicon Soft are trademarks of soft contact lenses commercially available from Bausch & Lomb, Nihon Contact K.K., and Menicon K.K., respectively.
# [4] = Benzalkonium chloride adsorption test (soft contact lens Menicon Soft 72); assay type: physicochemical; details: α-cyclodextrin 0%; benzalkonium chloride 0.01%; 25° C., 24 hours
# Procedure: as §5, §1, §2, §3, §4, §6
# [5] = Benzalkonium chloride adsorption test (soft contact lens Seequence); assay type: physicochemical; details: α-cyclodextrin 0%; benzalkonium chloride 0.01%; 25° C., 24 hours
# Procedure: as §5, §1, §2, §3, §4, §6
molecule,measurement,setting,value
O=BOB(O)OB(O)OB=O [Borax],Antimicrobial activity,"[1]; boric acid 0%, borax 0.01%, about pH 7.2",+ (microorganisms died in 6-10 days)
same,Antimicrobial activity,"[1]; boric acid 0%, borax 0.02%, about pH 7.2",+ (microorganisms died in 6-10 days)
same,Antimicrobial activity,"[1]; boric acid 0%, borax 0.04%, about pH 7.2",+ (microorganisms died in 6-10 days)
same,Antimicrobial activity,"[1]; boric acid 0%, borax 0.06%, about pH 7.2",+ (microorganisms died in 6-10 days)
same,Antimicrobial activity,"[1]; boric acid 0%, borax 0.08%, about pH 7.2",+ (microorganisms died in 6-10 days)
same,Antimicrobial activity,"[1]; boric acid 0%, borax 0.1%, about pH 7.2",+ (microorganisms died in 6-10 days)
same,Antimicrobial activity,"[1]; boric acid 0%, borax 0.15%, about pH 7.2",++ (microorganisms died within 5 days)
same,Enhancement of antimicrobial activity (in words),[1],effective for enhancing the antimicrobial activity
OB(O)O [Boric acid],Antimicrobial activity,"[1]; boric acid 0.05%, borax 0%, about pH 7.2",+ (microorganisms died in 6-10 days)
same,Antimicrobial activity,"[1]; boric acid 0.1%, borax 0%, about pH 7.2",++ (microorganisms died within 5 days)
same,Antimicrobial activity,"[1]; boric acid 0.2%, borax 0%, about pH 7.2",++ (microorganisms died within 5 days)
same,Antimicrobial activity,"[1]; boric acid 0.4%, borax 0%, about pH 7.2",++ (microorganisms died within 5 days)
same,Antimicrobial activity,"[1]; boric acid 0.6%, borax 0%, about pH 7.2",++ (microorganisms died within 5 days)
same,Antimicrobial activity,"[1]; boric acid 0.8%, borax 0%, about pH 7.2",++ (microorganisms died within 5 days)
same,Antimicrobial activity,"[1]; boric acid 1.0%, borax 0%, about pH 7.2",++ (microorganisms died within 5 days)
same,Enhancement of antimicrobial activity (in words),[1],effective for enhancing the antimicrobial activity
"O=C([O-])CN(CCN(CC(=O)O)CC(=O)O)CC(=O)[O-].[Na+].[Na+] [EDTA-2Na, disodium ethylenediaminetetraacetate]",Effect on lowering of antimicrobial activity by α-cyclodextrin (in words),"[1]; 0.01 to 1.0% of α-cyclodextrin, remarkable at EDTA-2Na at least 0.006%",prevents a lowering of antimicrobial activity
same,Antimicrobial activity,"[1]; EDTA-2Na 0.002%, α-cyclodextrin 0.01%",+ (microorganisms died in 6-10 days)
same,Antimicrobial activity,"[1]; EDTA-2Na 0.002%, α-cyclodextrin 0.03%",- (microorganisms died in 11-15 days or over 15 days)
same,Antimicrobial activity,"[1]; EDTA-2Na 0.002%, α-cyclodextrin 0.05%",- (microorganisms died in 11-15 days or over 15 days)
same,Antimicrobial activity,"[1]; EDTA-2Na 0.002%, α-cyclodextrin 0.1%",- (microorganisms died in 11-15 days or over 15 days)
same,Antimicrobial activity,"[1]; EDTA-2Na 0.002%, α-cyclodextrin 0.3%",- (microorganisms died in 11-15 days or over 15 days)
same,Antimicrobial activity,"[1]; EDTA-2Na 0.002%, α-cyclodextrin 0.5%",- (microorganisms died in 11-15 days or over 15 days)
same,Antimicrobial activity,"[1]; EDTA-2Na 0.002%, α-cyclodextrin 1.0%",- (microorganisms died in 11-15 days or over 15 days)
same,Antimicrobial activity,"[1]; EDTA-2Na 0.004%, α-cyclodextrin 0.01%",+ (microorganisms died in 6-10 days)
same,Antimicrobial activity,"[1]; EDTA-2Na 0.004%, α-cyclodextrin 0.03%",- (microorganisms died in 11-15 days or over 15 days)
same,Antimicrobial activity,"[1]; EDTA-2Na 0.004%, α-cyclodextrin 0.05%",- (microorganisms died in 11-15 days or over 15 days)
same,Antimicrobial activity,"[1]; EDTA-2Na 0.004%, α-cyclodextrin 0.1%",- (microorganisms died in 11-15 days or over 15 days)
same,Antimicrobial activity,"[1]; EDTA-2Na 0.004%, α-cyclodextrin 0.3%",- (microorganisms died in 11-15 days or over 15 days)
same,Antimicrobial activity,"[1]; EDTA-2Na 0.004%, α-cyclodextrin 0.5%",- (microorganisms died in 11-15 days or over 15 days)
same,Antimicrobial activity,"[1]; EDTA-2Na 0.004%, α-cyclodextrin 1.0%",- (microorganisms died in 11-15 days or over 15 days)
same,Antimicrobial activity,"[1]; EDTA-2Na 0.006%, α-cyclodextrin 0.01%",+ (microorganisms died in 6-10 days)
same,Antimicrobial activity,"[1]; EDTA-2Na 0.006%, α-cyclodextrin 0.03%",+ (microorganisms died in 6-10 days)
same,Antimicrobial activity,"[1]; EDTA-2Na 0.006%, α-cyclodextrin 0.05%",+ (microorganisms died in 6-10 days)
same,Antimicrobial activity,"[1]; EDTA-2Na 0.006%, α-cyclodextrin 0.1%",+ (microorganisms died in 6-10 days)
same,Antimicrobial activity,"[1]; EDTA-2Na 0.006%, α-cyclodextrin 0.3%",+ (microorganisms died in 6-10 days)
same,Antimicrobial activity,"[1]; EDTA-2Na 0.006%, α-cyclodextrin 0.5%",+ (microorganisms died in 6-10 days)
same,Antimicrobial activity,"[1]; EDTA-2Na 0.006%, α-cyclodextrin 1.0%",+ (microorganisms died in 6-10 days)
same,Antimicrobial activity,"[1]; EDTA-2Na 0.01%, α-cyclodextrin 0.01%",+ (microorganisms died in 6-10 days)
same,Antimicrobial activity,"[1]; EDTA-2Na 0.01%, α-cyclodextrin 0.03%",+ (microorganisms died in 6-10 days)
same,Antimicrobial activity,"[1]; EDTA-2Na 0.01%, α-cyclodextrin 0.05%",+ (microorganisms died in 6-10 days)
same,Antimicrobial activity,"[1]; EDTA-2Na 0.01%, α-cyclodextrin 0.1%",+ (microorganisms died in 6-10 days)
same,Antimicrobial activity,"[1]; EDTA-2Na 0.01%, α-cyclodextrin 0.3%",+ (microorganisms died in 6-10 days)
same,Antimicrobial activity,"[1]; EDTA-2Na 0.01%, α-cyclodextrin 0.5%",+ (microorganisms died in 6-10 days)
same,Antimicrobial activity,"[1]; EDTA-2Na 0.01%, α-cyclodextrin 1.0%",+ (microorganisms died in 6-10 days)
same,Antimicrobial activity,"[1]; EDTA-2Na 0.05%, α-cyclodextrin 0.01%",+ (microorganisms died in 6-10 days)
same,Antimicrobial activity,"[1]; EDTA-2Na 0.05%, α-cyclodextrin 0.03%",+ (microorganisms died in 6-10 days)
same,Antimicrobial activity,"[1]; EDTA-2Na 0.05%, α-cyclodextrin 0.05%",+ (microorganisms died in 6-10 days)
same,Antimicrobial activity,"[1]; EDTA-2Na 0.05%, α-cyclodextrin 0.1%",+ (microorganisms died in 6-10 days)
same,Antimicrobial activity,"[1]; EDTA-2Na 0.05%, α-cyclodextrin 0.3%",+ (microorganisms died in 6-10 days)
same,Antimicrobial activity,"[1]; EDTA-2Na 0.05%, α-cyclodextrin 0.5%",+ (microorganisms died in 6-10 days)
same,Antimicrobial activity,"[1]; EDTA-2Na 0.05%, α-cyclodextrin 1.0%",+ (microorganisms died in 6-10 days)
same,Antimicrobial activity,"[1]; EDTA-2Na 0.1%, α-cyclodextrin 0.01%",+ (microorganisms died in 6-10 days)
same,Antimicrobial activity,"[1]; EDTA-2Na 0.1%, α-cyclodextrin 0.03%",+ (microorganisms died in 6-10 days)
same,Antimicrobial activity,"[1]; EDTA-2Na 0.1%, α-cyclodextrin 0.05%",+ (microorganisms died in 6-10 days)
same,Antimicrobial activity,"[1]; EDTA-2Na 0.1%, α-cyclodextrin 0.1%",+ (microorganisms died in 6-10 days)
same,Antimicrobial activity,"[1]; EDTA-2Na 0.1%, α-cyclodextrin 0.3%",+ (microorganisms died in 6-10 days)
same,Antimicrobial activity,"[1]; EDTA-2Na 0.1%, α-cyclodextrin 0.5%",+ (microorganisms died in 6-10 days)
same,Antimicrobial activity,"[1]; EDTA-2Na 0.1%, α-cyclodextrin 1.0%",+ (microorganisms died in 6-10 days)
same,Antimicrobial activity,"[1]; EDTA-2Na 0.3%, α-cyclodextrin 0.01%",+ (microorganisms died in 6-10 days)
same,Antimicrobial activity,"[1]; EDTA-2Na 0.3%, α-cyclodextrin 0.03%",+ (microorganisms died in 6-10 days)
same,Antimicrobial activity,"[1]; EDTA-2Na 0.3%, α-cyclodextrin 0.05%",+ (microorganisms died in 6-10 days)
same,Antimicrobial activity,"[1]; EDTA-2Na 0.3%, α-cyclodextrin 0.1%",+ (microorganisms died in 6-10 days)
same,Antimicrobial activity,"[1]; EDTA-2Na 0.3%, α-cyclodextrin 0.3%",+ (microorganisms died in 6-10 days)
same,Antimicrobial activity,"[1]; EDTA-2Na 0.3%, α-cyclodextrin 0.5%",+ (microorganisms died in 6-10 days)
same,Antimicrobial activity,"[1]; EDTA-2Na 0.3%, α-cyclodextrin 1.0%",+ (microorganisms died in 6-10 days)
OC[C@H]1O[C@@H]2O[C@H]3[C@H](O)[C@@H](O)[C@@H](O[C@H]4[C@H](O)[C@@H](O)[C@@H](O[C@H]5[C@H](O)[C@@H](O)[C@@H](O[C@H]6[C@H](O)[C@@H](O)[C@@H](O[C@H]7[C@H](O)[C@@H](O)[C@@H](O[C@H]8[C@H](O)[C@@H](O)[C@@H](O[C@H]1[C@H](O)[C@H]2O)O[C@@H]8CO)O[C@@H]7CO)O[C@@H]6CO)O[C@@H]5CO)O[C@@H]4CO)O[C@@H]3CO [β-cyclodextrin],"Inhibition of adsorption, cyclodextrin in place of α-cyclodextrin (in words)",[2],Approximately equivalent results
benzalkonium chloride [reference compound],Inhibition of adsorption,[3],60%
same,Antimicrobial activity,"[1]; boric acid 0%, borax 0%, EDTA-2Na 0.006%, α-cyclodextrin 0.03%, about pH 7.2",+ (microorganisms died in 6-10 days)
same,Inhibition of adsorption,[4],65%
same,Inhibition of adsorption,[5],65%
